The supplement of paper PMC7224384

Legend:
[1] = system: MDA-MB-453; test: drug sensitivity score (DSS), single agent (DSS (weighted AUC score)); higher = more sensitive (stronger viability decrease); extreme values may be limits of the assay; settings: BLU9931 0 nM; 72 h
How it was run: (§1)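 Each 384-well plate held compounds from the FIMM Oncology set, predispensed in singlicate at five 10-fold dilutions spanning a 10,000-fold range, and each well then received 2000 MDA-MB-453 cells in medium with or without an FGFR4 inhibitor at 100 nM final. Plates stayed at 37 °C, 5% CO2 for 72 h, after which cellular ATP was measured with CellTiterGlo 2.0. Readings were converted per plate into percent viability against control wells, and the drug sensitivity score was taken as a weighted area under a four-parameter logistic fit.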

[2] = system: MDA-MB-453; test: drug sensitivity score (DSS), in combination with BLU9931 (DSS (weighted AUC score)); higher = more sensitive (stronger viability decrease); extreme values may be limits of the assay; settings: BLU9931 100 nM; 72 h
How it was run: as §1

Row | SMILES | drug sensitivity score [1] | drug sensitivity score [2]
1 | COCCOc1cnc2ccn([C@H](C)c3nnc4c(F)cc(-c5cnn(C)c5)cn34)c(=O)c2c1 [AMG-337] | 0 | 0
2 | CC1CCC(n2c3cnccc3c3cnc(Nc4ccc5c(n4)CCN(C(=O)CO)C5)nc32)CC1 (centres undefined) [AMG-925] | 2.6 | 3.4
3 | COCC1(CO)C(=O)C2CCN1CC2 (centres undefined) [APR-246] | 0 | 0.4
4 | CC(C)[C@H](C(=O)Nc1ccc(C(=O)NO)cc1)c1ccccc1 [AR-42] | 18.1 | 17.8
5 | Cc1sc2c(c1C)C(c1ccc(Cl)cc1)=N[C@@H](CC(=O)Nc1ccc(OCCOCCOCCOCCNc3cccc4c3C(=O)N(C3CCC(=O)NC3=O)C4=O)cc1)c1nnc(C)n1-2 (some centres undefined) [ARV-825] | 10.1 | 10.7
6 | COc1cc(N2CCC(N3CCN(C)CC3)CC2)ccc1Nc1ncnc(Nc2ccccc2S(=O)(=O)C(C)C)n1 [ASP3026] | 0.8 | 0.3
7 | O=C(NC1CCNCC1)c1n[nH]cc1NC(=O)c1c(Cl)cccc1Cl [AT7519] | 13.2 | 14.6
8 | O=C(Nc1c[nH]nc1-c1nc2ccc(CN3CCOCC3)cc2[nH]1)NC1CC1 [AT9283] | 2.3 | 2.3
9 | CN[C@@H](C)C(=O)N[C@H]1CN(C(=O)CC(C)C)CC[C@H]2CC[C@@H](C(=O)NC(c3ccccc3)c3ccccc3)N2C1=O [AT-406] | 5.1 | 5.1
10 | CC[C@H](CC#N)OC(=O)N[C@@H](C)c1cccc(NC(=O)Nc2ccc(-c3cnco3)c(OC)c2)c1 [AVN944] | 7.1 | 3.2
11 | COc1cc(N2CCN(C)CC2)ccc1Nc1nccc(-c2cn(C)c3cnccc23)n1 [AZ191] | 1.3 | 1.2
12 | COc1cc(OC2CCN(C)CC2)ccc1Nc1ncc2c(n1)n(C1CCCC1)c(=O)n2C [AZ 3146] | 2.6 | 1
13 | CN(C)CCCOc1ccc(-c2ccc3ncc4c(c3c2)n(C2CCOCC2)c(=O)n4C)cn1 [AZD0156] | 1.6 | 3
14 | N[C@@H]1CCCN(c2c(/C=C3\SC(=O)NC3=O)cccc2-c2ccccc2)C1 [AZD1208] | 0.3 | 0.1
15 | Cc1cc(Nc2nc(N[C@@H](C)c3ncc(F)cn3)ncc2Cl)[nH]n1 [AZD1480] | 0.3 | 0
16 | C=CCn1c(=O)c2cnc(Nc3ccc(N4CCN(C)CC4)cc3)nc2n1-c1cccc(C(C)(C)O)n1 [AZD1775] | 13.7 | 12.4
17 | COc1cc2ncnc(Nc3cccc(Cl)c3F)c2cc1OC(=O)N1CCN(C)C[C@H]1C [AZD3759] | 0 | 0.9
18 | Cc1[nH]nc(C(F)(F)F)c1Cc1sc2c(c1C(=O)N1C[C@](C)(O)CO1)c(=O)n(C)c(=O)n2C(C)C [AZD3965] | 0 | 0
19 | COc1cc(CCc2cc(NC(=O)c3ccc(N4CC(C)NC(C)C4)cc3)n[nH]2)cc(OC)c1 (centres undefined) [AZD4547] | 0.3 | 0

Row | SMILES | drug sensitivity score [1] | drug sensitivity score [2]
20 | C[C@@H]1COCCN1c1cc(C2([S@](C)(=N)=O)CC2)nc(-c2cc[nH]c3nccc2-3)n1 [AZD6738] | 11 | 10.7
21 | CN(C)C(=O)c1ccc(S(=O)(=O)c2ccc(NC(=O)[C@@](C)(O)C(F)(F)F)c(Cl)c2)cc1 [AZD7545] | 0.1 | 0.2
22 | NC(=O)Nc1cc(-c2cccc(F)c2)sc1C(=O)N[C@H]1CCCNC1 [AZD7762] | 5 | 4
23 | COc1ccc(-c2ccc3c(N4CCOC[C@@H]4C)nc(N4CCOC[C@@H]4C)nc3n2)cc1CO [AZD8055] | 24.3 | 23.3
24 | N#Cc1ccc2[nH]c(O)c(-c3ccc(CN4CCOCC4)cn3)c2c1 [AZD-1080] | 0 | 0
25 | Cc1ncc(-c2ccnc(Nc3ccc(S(C)(=O)=O)cc3)n2)n1C(C)C [AZD-5438] | 6.1 | 7.9
26 | Cc1cc([C@@H](C)Nc2ccccc2C(=O)O)c2nc(N3CCOCC3)cc(=O)n2c1 [AZD-6482] | 7.5 | 7.4
27 | C[C@@H](Nc1cc(F)cc(F)c1)c1cc(C(=O)N(C)C)cc2c(=O)cc(N3CCOCC3)oc12 [AZD-8186] | 1.7 | 2.3
28 | CCN1CCN(Cc2ccc(Nc3ncc(F)c(-c4cc(F)c5nc(C)n(C(C)C)c5c4)n3)nc2)CC1 [Abemaciclib] | 4.1 | 7.8
29 | CN(C)Cc1c(C(=O)NCCOc2ccc(C(=O)NO)cc2)oc2ccccc12 [Abexinostat] | 22.6 | 22.3
30 | C[C@]12CC[C@H](O)CC1=CC[C@@H]1[C@@H]2CC[C@]2(C)C(c3cccnc3)=CC[C@@H]12 [Abiraterone] | 0 | 0
31 | CC#CC(=O)N1CCC[C@H]1c1nc(-c2ccc(C(=O)Nc3ccccn3)cc2)c2c(N)nccn12 [Acalabrutinib] | 4.2 | 2.4
32 | COc1cc(C)c(/C=C/C(C)=C/C=C/C(C)=C/C(=O)O)c(C)c1C [Acitretin] | 0.2 | 0
33 | CN(C)C/C=C/C(=O)Nc1cc2c(Nc3ccc(F)c(Cl)c3)ncnc2cc1O[C@H]1CCOC1 [Afatinib] | 6.2 | 10.1
34 | Cn1ncc(Cl)c1-c1cc(C(=O)N[C@H](CN)Cc2cccc(F)c2)sc1Cl [Afuresertib] | 7.9 | 8.4
35 | COc1cccc2c1C(=O)c1c(O)c3c(c(O)c1C2=O)C[C@@](O)(/C(CO)=N/NC(=O)CCCCCN1C(=O)C=CC1=O)C[C@@H]3O[C@H]1C[C@H](N)[C@H](O)[C@H](C)O1 [Aldoxorubicin] | 5.8 | 5.4
36 | CCc1cc2c(cc1N1CCC(N3CCOCC3)CC1)C(C)(C)c1[nH]c3cc(C#N)ccc3c1C2=O [Alectinib] | 0.9 | 0
37 | COc1cc(Nc2ncc3c(n2)-c2ccc(Cl)cc2C(c2c(F)cccc2OC)=NC3)ccc1C(=O)O [Alisertib] | 0 | 1.7
38 | Oc1ncnc2[nH]ncc12 [Allopurinol] | 0.1 | 0.3

Row | SMILES | drug sensitivity score [1] | drug sensitivity score [2]
39 | Cc1nc(NC(=O)N2CCC[C@H]2C(N)=O)sc1-c1ccnc(C(C)(C)C(F)(F)F)c1 [Alpelisib] | 7.2 | 8
40 | O=C(Nc1cc(Oc2cc(F)c(NC(=O)C3(C(=O)Nc4ccc(F)cc4)CC3)cc2F)ccn1)C1CC1 [Altiratinib] | 7.1 | 3.5
41 | CN1CC[C@H](c2c(O)cc(O)c3c(=O)cc(-c4ccccc4Cl)oc23)[C@H](O)C1 [Alvocidib] | 14.5 | 16.2
42 | CCN(CC)CCNC(=O)c1c(C)[nH]c(/C=C2\C(=O)Nc3ccc(-c4csc(-c5ccccc5)n4)cc32)c1C [Amcasertib] | 2.5 | 1
43 | CCC1(c2ccc(N)cc2)CCC(=O)NC1=O (centres undefined) [Aminoglutethimide] | 0 | 1.3
44 | COc1cc(NS(C)(=O)=O)ccc1Nc1c2ccccc2nc2ccccc12 [Amsacrine] | 1.2 | 2
45 | S=C(NCc1ccc2c(c1)OCO2)N1CCN(c2ncnc3c2oc2ccccc23)CC1 [Amuvatinib] | 3.3 | 0.3
46 | O=C1CN2Cc3c(ccc(Cl)c3Cl)N=C2N1 [Anagrelide] | 0 | 0
47 | CC(C)(C#N)c1cc(Cn2cncn2)cc(C(C)(C)C#N)c1 [Anastrozole] | 0 | 0
48 | CNC(=O)c1ccc(N2C(=S)N(c3cnc(C#N)c(C(F)(F)F)c3)C(=O)C23CCC3)cc1F [Apalutamide] | 0 | 0
49 | N#CC1(c2ccc(NC(=O)c3cccnc3NCc3ccncc3)cc2)CCCC1 [Apatinib] | 0.7 | 0
50 | O=C(Nc1ccc(OC(F)(F)Cl)cc1)c1cnc(N2CC[C@@H](O)C2)c(-c2cc[nH]n2)c1 [Asciminib] | 3.4 | 1.2
51 | CC(C)c1c(C(=O)Nc2ccccc2)c(-c2ccccc2)c(-c2ccc(F)cc2)n1CC[C@@H](O)C[C@@H](O)CC(=O)O [Atorvastatin] | 0 | 0
52 | CC(=O)OC[C@H]1O[C@@H]([S-])[C@H](OC(C)=O)[C@@H](OC(C)=O)[C@@H]1OC(C)=O.CCP(CC)CC.[Au+] [Auranofin] | 8.9 | 8.8
53 | CNC(=O)c1ccccc1Sc1ccc2c(/C=C/c3ccccn3)n[nH]c2c1 [Axitinib] | 2.2 | 0.3
54 | Nc1ncn([C@@H]2O[C@H](CO)[C@@H](O)[C@H]2O)c(=O)n1 [Azacitidine] | 0.5 | 0.4
55 | Cc1cc(-c2nc(-c3ccc(OC(F)(F)F)cc3)no2)nn1Cc1ccnc(N2CCN(C3CC3)CC2)c1 [BAY 87-2243] | 12.2 | 10.4
56 | Nc1nc(Nc2ccc3c(c2)CC[C@@H](N2CCCC2)CC3)nn1-c1cc2c(nn1)-c1ccccc1CCC2 [BGB324] | 3.2 | 0.2
57 | O=C1CCc2c(Oc3ccc4c(c3)[C@@H]3[C@H](O4)[C@H]3c3nc4cc(C(F)(F)F)ccc4[nH]3)ccnc2N1 [BGB-283] | 3.6 | 1.3
